Assay results: ChEMBL document CHEMBL3400013, “Synthesis and biological activity evaluation of hydrazone derivatives based on a Tröger's base skeleton” (Bioorg Med Chem, 2015)
Active and inactive are the calls of the source. No cut-off for these calls is given here.

What follows are molecules tested on Mycobacterium tuberculosis (assay: Antimicrobial activity against Mycobacterium bovis BCG up to 100 uM after 24 to 48 hrs by broth microdilution method). Settings: variant bovis BCG.
Format: functional, organism-based
For `COC(=O)c1ccc(O)c(/C=N/NC(=O)c2ccc3c4c(ccc3c2)N2Cc3c(ccc5cc(C(=O)N/N=C/c6cc(C(=O)OC)ccc6O)ccc35)N(C4)C2)c1`, the Activity was “inactive”.
With `COc1cccnc1/C=N/NC(=O)c1ccc2c3c(ccc2c1)N1Cc2c(ccc4cc(C(=O)N/N=C/c5ncccc5OC)ccc24)N(C3)C1` the Activity was “inactive”.
With `Cc1ccc(O)c(/C=N/NC(=O)c2ccc3c4c(ccc3c2)N2Cc3c(ccc5cc(C(=O)N/N=C/c6cc(C)ccc6O)ccc35)N(C4)C2)c1` the Activity was “inactive”.
For `O=C(N/N=C/c1cc([N+](=O)[O-])ccc1O)c1ccc2c3c(ccc2c1)N1Cc2c(ccc4cc(C(=O)N/N=C/c5cc([N+](=O)[O-])ccc5O)ccc24)N(C3)C1`, the Activity was “inactive”.
For `O=C(N/N=C/c1cc(O)ccc1O)c1ccc2c3c(ccc2c1)N1Cc2c(ccc4cc(C(=O)N/N=C/c5cc(O)ccc5O)ccc24)N(C3)C1`, the Activity was “inactive”.
With `O=C(N/N=C/c1nccc2ccccc12)c1ccc2c3c(ccc2c1)N1Cc2c(ccc4cc(C(=O)N/N=C/c5nccc6ccccc56)ccc24)N(C3)C1` the Activity was “inactive”.
In the case of `O=C(N/N=C/c1cc(Cl)ccc1O)c1ccc2c3c(ccc2c1)N1Cc2c(ccc4cc(C(=O)N/N=C/c5cc(Cl)ccc5O)ccc24)N(C3)C1`, the Activity is reported as “inactive”.
For `O=C(NN=C(c1ccccn1)c1ccccn1)c1ccc2c3c(ccc2c1)N1Cc2c(ccc4cc(C(=O)NN=C(c5ccccn5)c5ccccn5)ccc24)N(C3)C1`, the Activity was “inactive”.
In the case of `COc1ccc(O)c(/C=N/NC(=O)c2ccc3c4c(ccc3c2)N2Cc3c(ccc5cc(C(=O)N/N=C/c6cc(OC)ccc6O)ccc35)N(C4)C2)c1`, the Activity is reported as “inactive”.
`O=C(N/N=C/c1ccccc1O)c1ccc2c3c(ccc2c1)N1Cc2c(ccc4cc(C(=O)N/N=C/c5ccccc5O)ccc24)N(C3)C1` was tested, and the Activity was “inactive”.
In the case of `O=C(N/N=C/c1cc(F)ccc1O)c1ccc2c3c(ccc2c1)N1Cc2c(ccc4cc(C(=O)N/N=C/c5cc(F)ccc5O)ccc24)N(C3)C1`, the Activity is reported as “inactive”.
